Source: ChEMBL document CHEMBL1201862, “PubChem BioAssay data set” (2004)
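Protocol summary: plate cells (96-well), add compound at 5 concentrations, incubate 48 h, interpolate endpoints linearly. The concentration for 50% growth inhibition is given as GI50.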 Active and inactive are the calls of the source. Rule as the data show it: active = GI50 up to about 1.1 µM and inactive = higher.

Tests used:
Assay in all cases: NCI tumour cell line growth inhibition, 48 h
786-0 = test system: 786-0
A498 = test system: A498
A549 = test system: A549
ACHN = test system: ACHN
BT-549 = test system: BT-549
CAKI-1 = test system: CAKI-1
CCRF-CEM = test system: CCRF-CEM
COLO 205 = test system: COLO 205
DU-145 = test system: DU-145
EKVX = test system: EKVX
HCC 2998 = test system: HCC 2998
HCT-116 = test system: HCT-116
HCT-15 = test system: HCT-15
HL-60 = test system: HL-60
HOP-62 = test system: HOP-62
HOP-92 = test system: HOP-92
HT-29 = test system: HT-29
Hs-578T = test system: Hs-578T
IGROV-1 = test system: IGROV-1
K562 = test system: K562
KM12 = test system: KM12
LOX IMVI = test system: LOX IMVI
M14 = test system: M14
MDA-MB-231 = test system: MDA-MB-231
MDA-MB-435 = test system: MDA-MB-435
MDA-N = test system: MDA-N
MOLT-4 = test system: MOLT-4
Malme-3M = test system: Malme-3M
NCI-H226 = test system: NCI-H226
NCI-H23 = test system: NCI-H23
NCI-H460 = test system: NCI-H460
NCI-H522 = test system: NCI-H522
NCI/ADR-RES = test system: NCI/ADR-RES
OVCAR-3 = test system: OVCAR-3
OVCAR-4 = test system: OVCAR-4
OVCAR-5 = test system: OVCAR-5
OVCAR-8 = test system: OVCAR-8
PC-3 = test system: PC-3
RPMI-8226 = test system: RPMI-8226
RXF 393 = test system: RXF 393
SF-268 = test system: SF-268
SF-295 = test system: SF-295
SF-539 = test system: SF-539
SK-MEL-28 = test system: SK-MEL-28
SK-MEL-2 = test system: SK-MEL-2
SK-MEL-5 = test system: SK-MEL-5
SK-OV-3 = test system: SK-OV-3
SN12C = test system: SN12C
SNB-19 = test system: SNB-19
SNB-75 = test system: SNB-75
SR = test system: SR
SW-620 = test system: SW-620
T47D = test system: T47D
TK-10 = test system: TK-10
U-251 = test system: U-251
UACC-257 = test system: UACC-257
UACC-62 = test system: UACC-62
UO-31 = test system: UO-31

Cc1c(C)c(S(=O)(=O)N(CCCCCN)OCCCN)c(C)c2c1OC(C)(C)CC2
GI50 (786-0): 6.62 µM (inactive)
GI50 (A498): 18.6 µM (inactive)
GI50 (A549): 16 µM (inactive)
GI50 (ACHN): 17.2 µM (inactive)
GI50 (BT-549): 13.5 µM (inactive)
GI50 (CAKI-1): 20.5 µM (inactive)
GI50 (CCRF-CEM): 2.6 µM (inactive)
GI50 (COLO 205): 12.2 µM (inactive)
GI50 (DU-145): 25.1 µM (inactive)
GI50 (EKVX): 11.4 µM (inactive)
GI50 (HCC 2998): 2.27 µM (inactive)
GI50 (HCT-116): 5.98 µM (inactive)
GI50 (HCT-15): 18.6 µM
GI50 (HL-60): 2.19 µM (inactive)
GI50 (HOP-62): 8.05 µM (inactive)
GI50 (HOP-92): 18.3 µM (inactive)
GI50 (HT-29): 13 µM (inactive)
GI50 (Hs-578T): 6.73 µM (inactive)
GI50 (IGROV-1): 2.82 µM (inactive)
GI50 (K562): 5.07 µM (inactive)
GI50 (KM12): 2.92 µM (inactive)
GI50 (LOX IMVI): 5.4 µM (inactive)
GI50 (M14): 27.7 µM (inactive)
GI50 (MDA-MB-231): 5.89 µM (inactive)
GI50 (MDA-MB-435): 5.82 µM (inactive)
GI50 (MDA-N): 4.73 µM (inactive)
GI50 (MOLT-4): 3.76 µM (inactive)
GI50 (Malme-3M): 14.3 µM (inactive)
GI50 (NCI-H226): 8.89 µM (inactive)
GI50 (NCI-H23): 14.6 µM (inactive)
GI50 (NCI-H460): 6.35 µM (inactive)
GI50 (NCI-H522): 6.28 µM (inactive)
GI50 (NCI/ADR-RES): 20.6 µM (inactive)
GI50 (OVCAR-3): 5.9 µM (inactive)
GI50 (OVCAR-4): 3.96 µM (inactive)
GI50 (OVCAR-5): 24.8 µM (inactive)
GI50 (OVCAR-8): 15.6 µM (inactive)
GI50 (PC-3): 4.06 µM (inactive)
GI50 (RPMI-8226): 3.6 µM (inactive)
GI50 (RXF 393): 11.6 µM (inactive)
GI50 (SF-268): 10 µM (inactive)
GI50 (SF-295): 17.4 µM (inactive)
GI50 (SF-539): > 25.3 µM (inactive)
GI50 (SK-MEL-28): 18.9 µM (inactive)
GI50 (SK-MEL-2): 4.75 µM (inactive)
GI50 (SK-MEL-5): 14.2 µM (inactive)
GI50 (SK-OV-3): 13.4 µM (inactive)
GI50 (SN12C): 16.6 µM (inactive)
GI50 (SNB-19): 7.91 µM (inactive)
GI50 (SNB-75): 6.4 µM (inactive)
GI50 (SR): 1.61 µM (inactive)
GI50 (SW-620): 7.8 µM (inactive)
GI50 (T47D): 16.6 µM (inactive)
GI50 (TK-10): 16.2 µM (inactive)
GI50 (U-251): 5.64 µM (inactive)
GI50 (UACC-257): 13.8 µM (inactive)
GI50 (UACC-62): 12.9 µM (inactive)
GI50 (UO-31): 20.1 µM (inactive)
